In US11571401B2, “Compounds, compositions, kits, and methods for activating immune cells and/or an immune system response” (East Carolina University, priority 2017, dated 2023):

Key:
B16F10 melanoma cells [1] = assay: Cell surface calreticulin (CRT) expression by flow cytometry in B16F10 melanoma cells; format: cell-based, mouse
Method: DAMPs are proteins that are expressed on the surface of cancer cells (e.g., calreticulin (CRT)) or are released from cancer cells (e.g., ATP and HMGB1) after exposure to DAMP inducing agents. DAMPs signal immune cell mediated cancer death.
B16F10 melanoma cells were treated with 5 uM 15dPMJ2 (PMJ), 5 uM oxaliplatin (OX), drug vehicle (VEH, DMSO 0.1%) or cells remained untreated (UT) for 2 hours. After 2 hours, cell surface calreticulin (CRT) expression was measured by flow cytometric analysis.
Brefeldin A is a molecule that inhibits the movement of proteins from the ER to the golgi apparatus (inhibits ER-golgi trafficking). Proteins must move from the ER to golgi in order translocate to the cell surface.
B 16f10 cells were treated with vehicle (V), brefeldin A (BFA), 15dPMJ2 (PMJ) or brefeldin+15dPMJ2.

B16F10 melanoma cells [2] = assay: Extracellular ATP release from B16F10 melanoma cells; format: cell-based, mouse
Method: B16F10 melanoma cells were treated with 5 uM 15dPMJ2 (PMJ), 5uM oxaliplatin (OX), drug vehicle (VEH, DMSO 0.1%) or cells remained untreated (UT) for 4 hours. After 4 hours of drug treatment, the cell culture media from B16F10 cells was obtained to measured ATP levels.
B16F10 cells were treated with 15dPMJ2 (PMJ), oxaliplatin (OX), or drug vehicle (VEH) in the presence or absence of the ER stress inhibitor, GSK2656157 (“inhibitor” (I)).

A431 cells (NMSC) = assay: Cell surface CRT expression by flow cytometry in A431 cells; format: cell-based, human
Method: (§1) A431 cells (NMSC) and HT-29 (colon cancer) cells were treated with 15dPMJ2, oxaliplatin (OX), drug vehicle (VEH) or cells were untreated (UT) for 2 hours. Cell surface CRT expression was then detected by flow cytometric analysis.
(§2) Tumorigenic, A431, and non-tumorigenic, HaCaT keratinocyte cell lines were treated with 15dPMJ2 or drug vehicle (0.1% DMSO) and the cell surface expression of calreticulin (CRT; “eat me” signal) and CD47 (“don't eat me” signal) was detected by conducting flow cytometric analysis.

[3] = test system: HT-29 (colon cancer) cells; assay: Cell surface CRT expression by flow cytometry in HT-29 cells; format: cell-based; details: 5 μM (FIG. 6), 2 hours
Method: as §1

[4] = test system: non-tumorigenic, HaCaT keratinocyte cell line; assay: Cell surface CRT expression by flow cytometry in HaCaT keratinocytes; format: cell-based, human; details: HaCaT non-tumor keratinocytes vs drug vehicle (0.1% DMSO); FIG. 7
Method: as §2

A431 cells = assay: Cell surface CD47 expression by flow cytometry in A431 cells; format: cell-based, human; details: A431 tumor cells vs drug vehicle (0.1% DMSO); FIG. 8
Method: as §2

[5] = test system: non-tumorigenic, HaCaT keratinocyte cell line; assay: Cell surface CD47 expression by flow cytometry in HaCaT keratinocytes; format: cell-based, human; details: HaCaT non-tumor keratinocytes vs drug vehicle (0.1% DMSO); FIG. 8
Method: as §2

[6] = test system: immature dendritic cells isolated from the bone marrow of C57BL/6 mice; assay: Dendritic cell maturation: drug-treated B16F10 cells co-cultured with immature bone marrow dendritic cells; format: cell-based, mouse; details: FIG. 9
Method: B16F10 melanoma cells remained untreated (UT) or were treated with lipopolysaccharide (LPS; positive control dendritic cell activator), vehicle (VEH; 0.1% DMSO), 500 uM oxaliplatin (OXA; positive control DAMP inducer), or 5 uM 15dPMJ2 (PMJ). The drug-treated cancer cells were then co-cultured with immature dendritic cells that were isolated from the bone marrow of C57BL/6 mice (mouse strain from which the B16F10 cell line was derived). Cell surface markers for dendritic cell maturation were then detected.

B16F10 melanoma tumors = assay: Tumor-infiltrating mature dendritic cells in B16F10 melanoma tumors in mice; format: in vivo; details: C57BL/6 mice, peri-tumor route, 5 days, 0.5 and 0.25 mg/kg (FIG. 10), compared to cisplatin-, oxaliplatin-treated and untreated animals
Method: To determine if 15dPMJ2 can increase the amount of tumor-attacking immune cells in melanoma tumors, a pilot xenograft study was conducted. B16F10 melanoma cells were injected into the subcutaneous flank region of C57BL/6 mice and tumor growth was allowed until tumors were palpable. Animals were then treated by the peri-tumor route with 15dPMJ2, oxaliplatin (positive control DAMP inducer), cisplatin (negative control DAMP inducer), vehicle (PBS containing 0.1% DMSO) or animals were untreated. After 5 days of drug treatment, animals were euthanized and tumors excised for analysis of infiltrating immune cells (TILs). Tumors were dissociated to create a single cell suspension. The expression of MHC II and CD86 (dendritic cell maturation markers) was analyzed by conducting flow cytometric analysis.

tumor cells = details: background statement; see U.S. Pat. No. 9,328,060; cited from earlier work

Q: For C[C@H]1CCC/C=C/[C@@H]2C[C@H](O)C[C@H]2[C@H](O)/C=C/C(=O)O1 [Brefeldin A, reference compound], which “15dPMJ2-mediated cell surface CRT expression in presence of brefeldin A” value (B16F10 melanoma cells [1]; brefeldin + 15dPMJ2, FIG. 4) is on record?
A: inhibited 15dPMJ2-mediated cell surface CRT expression

Q: For CCCCC/C=C/C=C1/C(=O)C=CC1C/C=C/CCCC(=O)NCCO (centres unmarked) [Formula 15dPMJ2, 15-deoxy Δ^12,14-prostagladin J2-ethanolamide], which “cell surface calreticulin (CRT) expression” value (B16F10 melanoma cells [1]; 5 uM, 2 hours, flow cytometry, FIG. 1) is on record?
A: significantly greater than oxaliplatin

Q: What about the “ATP release (extracellular ATP in cell culture media)” value (B16F10 melanoma cells [2]; 5 uM, 4 hours, FIG. 2) of the same molecule?
A: significantly increased ATP release compared to vehicle and oxaliplatin treated cells

Q: And the “cell surface CRT expression (DAMP expression)” value (A431 cells (NMSC); A431 cells, 5 μM (FIG. 5), 2 hours)?
A: potent inducer of DAMP expression

Q: What about the “cell surface expression of calreticulin (CRT; eat me signal)” value (A431 cells (NMSC); A431 tumor cells vs drug vehicle (0.1% DMSO), FIG. 7) of the same molecule?
A: increased

Q: What about the “cell surface CRT expression (DAMP expression)” value [3] of the same molecule?
A: potent inducer of DAMP expression

Q: What about the “cell surface expression of calreticulin (CRT; eat me signal)” value [4] of the same molecule?
A: slight increase

Q: What about the “cell surface expression of CD47 (don't eat me signal)” value (A431 cells) of the same molecule?
A: decreased

Q: What about the “cell surface expression of CD47 (don't eat me signal)” value [5] of the same molecule?
A: increase

Q: What about the “expression of MHC II and CD86 (dendritic cell maturation markers)” value ([6]; B16F10 cells treated with 5 uM 15dPMJ2, then co-cultured with BMDCs) of the same molecule?
A: significantly increased the expression of MHC II and CD86

Q: What about the “quantity of mature dendritic cells (MHC II, CD86) that infiltrated the tumor” value (B16F10 melanoma tumors) of the same molecule?
A: increased the quantity of mature dendritic cells that infiltrated the tumor

Q: And the “cell death in tumor cells compared to non-tumor cells” value (tumor cells)?
A: preferentially causes cell death in tumor cells compared to non-tumor cells

Q: Which “extracellular ATP levels after 15dPMJ2 in presence of the ER stress inhibitor” value (B16F10 melanoma cells [2]; inhibitor + 15dPMJ2 vs 15dPMJ2 alone, FIG. 3) does the source give for Cc1cccc(CC(=O)N2CCc3c2ccc(-c2cn(C)c4ncnc(N)c24)c3F)n1 [GSK2656157, reference compound] here?
A: significantly decreased extracellular ATP levels

Q: For O=C1[O][Pt]2([NH][C@@H]3CCCC[C@H]3[NH]2)[O]C1=O [Oxaliplatin, oxaliplatin, reference compound], which “dendritic cell maturation (MHC II and CD86)” value ([6]; B16F10 cells treated with 500 uM oxaliplatin (100 times the concentration of 15dPMJ2), then co-cultured with BMDCs, compared with 15dPMJ2) is on record?
A: caused similar levels of dendritic cell maturation
